Emission maximum and intensity of emission data for three molecules are collected here from patent publication US20210214607A1, “LONG WAVELENGTH EMITTING CHEMILUMINESCENT PROBES” (NEMIS Technologies AG, priority 2018, published 2021).

Data set [1] can be described thus: Chemiluminescence upon reaction with H2O2 in PBS. It is filed as physicochemical. The conditions noted are these: compound 100 μM, H2O2 1 mM, PBS (pH 7.4) (10% DMSO). How it is done: (§1) All reactions were carried out at room temperature unless stated otherwise. Chemicals and solvents were either A.R. grade or purified by standard techniques. Thin layer chromatography (TLC): silica gel plates Merck 60 F254: compounds were visualized by irradiation with UV light. Column chromatography (FC): silica gel Merck 60 (particle size 0.040-0.063 mm), eluent given in parentheses. Reverse-phase high pressure liquid chromatography (RP-HPLC): C18 5u, 250×4.6 mm, eluent given in parentheses. Preparative RP-HPLC: C18 5u, 250×21 mm, eluent given in parentheses. Fluorescence and chemiluminescence were recorded on Molecular Devices Spectramax i3x.
The respective chemiluminescent kinetic profile is shown in FIG. 1 and the total light emission with [1 mM] or without the presence of H2O2 is shown in FIG. 2.
The chemiluminescent kinetic profile is shown in FIG. 5 and the total light emission with and without the presence of H2O2 is shown in FIG. 6.

A short description of data set [2]: Chemiluminescent emission spectrum in PBS. The data set is classed as physicochemical. The conditions noted are these: compound 100 μM, PBS (pH 7.4) (10% DMSO). How it is done:
as §1

In data set [1] (37° C.), `COC1(c2ccc(/C=C/c3cc[n+](CCCCCC(=O)O)cc3)c(OCc3ccc(B4OC(C)(C)C(C)(C)O4)cc3)c2Cl)OOC12C1CC3CC(C1)CC2C3` (stereo not drawn) [Ia1] had an emission maximum of 660 nm.

Take `COC1(c2ccc(/C=C/c3cc[n+]([O-])cc3)c(O)c2Cl)OOC12C1CC3CC(C1)CC2C3` (stereo not drawn) [Ia2]: the intensity of emission result in data set [2] is “visible by the naked eye”.

For `COC1(c2ccc(/C=C/c3cccc[n+]3CCCCCC(=O)O)c(OCc3ccc(B4OC(C)(C)C(C)(C)O4)cc3)c2Cl)OOC12C1CC3CC(C1)CC2C3` (stereo not drawn) [Ia3], in data set [1] (26° C.), the emission maximum is given as 650 nm.
